Molecular target: h-GABA-A α2β2γ1 (Homo sapiens (Human), UniProt P47869+Q8N1C3)
Experiment: Two-electrode voltage clamp electrophysiology in Xenopus oocytes expressing GABAA receptors
Type: cell-based
Settings: for Efficacy (GABA)%: % modulation of GABA EC20 = 100*(Fold increase−1), compound at 30-fold Ki; for Fold increase h-GABA-A α2β2γ1 oocyte @ 30-fold Ki: GABA EC20, test compound at about 30-fold its Ki α2β2γ1, at least 3 oocytes
Procedure: Xenopus laevis oocytes at maturation stages V-VI were used for the expression of cloned mRNA encoding GABAA receptor subunits. Oocytes ready for RNA micro-injection were bought from Ecocyte, Castrop-Rauxel, Germany and stored in modified Barth's medium (composition in mM: NaCl 88, KCl 1, NaHCO3 2.4, HEPES 10, MgSO4 0.82, CaNO3 0.33, CaCl2 0.33, pH=7.5) at 20° C. until the experiment.
Oocytes were plated in 96-well plates for microinjection using the Roboinject automated instrument (MultiChannelSystems, Reutlingen, Germany). Approximately 50 nL of an aqueous solution containing the RNA transcripts for the subunits of the desired GABAA receptor subtype was injected into each oocyte. […] Oocytes were kept in modified Barth's medium (composition in mM: NaCl 88, KCl 1, NaHCO3 […], HEPES 10, MgSO4 0.82, CaNO3 0.33, CaCl2 0.33, pH=7.5) at 20° C. until the experiment.
Electrophysiological experiments were performed using the Roboocyte instrument (MultiChannelSystems, Reutlingen, Germany) on days 3 to 5 after the micro-injection of mRNA. During the experiment the oocytes were constantly superfused by a solution containing (in mM) NaCl 90, KCl 1, HEPES 5, MgCl2 1 CaCl2 1 (pH 7.4). Oocytes were impaled by two glass microelectrodes (resistance: 0.5-0.8 MΩ) which were filled with a solution containing KCl 1M+K-acetate 1.5 M and voltage-clamped to −80 mV. The recordings were performed at room temperature using the Roboocyte two-electrode voltage clamp system (Multichannelsystem). After an initial equilibration period of 1.5 min GABA was added for 1.5 min at a concentration evoking approximately 20% of a maximal current response (EC20). After another rest interval of 2.5 min GABA was again added evoking a response of similar amplitude and shape. […] Current traces were recorded at a digitization rate of 10 Hz during and shortly before and after the GABA application.
Each compound and concentration was tested on at least 3 oocytes. Different oocytes were used for different compound concentrations.
For the analysis, the digitized current traces of the first and second GABA response were superimposed and, if necessary, rescaled to equal maximal amplitudes. The ratio between the two responses during the time interval of test compound application was calculated point by point. The extremum of the resulting “ratio trace” was taken as the efficacy (“Fold increase”) of the compound expressed as “% modulation of GABA EC20” (100*(Fold increase−1)).

Cc1cc(-c2nnc3n2-c2ccc(Cl)c(Cl)c2C(c2c(F)cccc2F)=N[C@H]3C)on1 [Example 87, 5-[(4S)-7,8-dichloro-6-(2,6-difluorophenyl)-4-methyl-4H-[1,2,4]triazolo[4,3-a][1,4]benzodiazepin-1-yl]-3-methyl-isoxazole] was tested, and the “Efficacy (GABA)%” value was 42% and the “Fold increase h-GABA-A α2β2γ1 oocyte @ 30-fold Ki” value was 1.42.
With Cc1ccc(-c2nnc3n2-c2ccc(Cl)c(Br)c2C(c2c(F)cccc2F)=N[C@H]3C)nn1 [Example 88, (4S)-7-bromo-8-chloro-6-(2,6-difluorophenyl)-4-methyl-1-(6-methylpyridazin-3-yl)-4H-[1,2,4]triazolo[4,3-a][1,4]benzodiazepine] the “Efficacy (GABA)%” value was 105% and the “Fold increase h-GABA-A α2β2γ1 oocyte @ 30-fold Ki” value was 2.05.
For C[C@@H]1N=C(c2c(F)cccc2F)c2c(ccc(Cl)c2Br)-n2c1n[nH]c2=O [Example 89, (4S)-7-bromo-8-chloro-6-(2,6-difluorophenyl)-4-methyl-2,4-dihydro-[1,2,4]triazolo[4,3-a][1,4]benzodiazepin-1-one], the “Efficacy (GABA)%” value was 88% and the “Fold increase h-GABA-A α2β2γ1 oocyte @ 30-fold Ki” value was 1.88.
For Cc1nnc2n1-c1ccc(C(F)(F)F)c(Cl)c1C(c1c(F)cccc1F)=N[C@H]2C [Example 92, (4S)-7-chloro-6-(2,6-difluorophenyl)-1,4-dimethyl-8-(trifluoromethyl)-4H-[1,2,4]triazolo[4,3-a][1,4]benzodiazepine], the “Efficacy (GABA)%” value was 92% and the “Fold increase h-GABA-A α2β2γ1 oocyte @ 30-fold Ki” value was 1.92.
In the case of Cc1nnc2n1-c1ccc(C(C)(F)F)c(Cl)c1C(c1c(F)cccc1F)=N[C@H]2C [Example 93, (4S)-7-chloro-8-(1,1-difluoroethyl)-6-(2,6-difluorophenyl)-1,4-dimethyl-4H-[1,2,4]triazolo[4,3-a][1,4]benzodiazepine], the “Efficacy (GABA)%” value is reported as 169% and the “Fold increase h-GABA-A α2β2γ1 oocyte @ 30-fold Ki” value is reported as 2.69.
Cc1cc(-c2nnc3n2-c2ccc(Cl)c(Cl)c2C(c2c(F)cccc2F)=N[C@H]3C)ncn1 [Example 94, (4S)-7,8-dichloro-6-(2,6-difluorophenyl)-4-methyl-1-(6-methylpyrimidin-4-yl)-4H-[1,2,4]triazolo[4,3-a][1,4]benzodiazepine] was tested, and the “Efficacy (GABA)%” value was 47% and the “Fold increase h-GABA-A α2β2γ1 oocyte @ 30-fold Ki” value was 1.47.
With Cc1nccc(-c2nnc3n2-c2ccc(Cl)c(Cl)c2C(c2c(F)cccc2F)=N[C@H]3C)n1 [Example 95, (4S)-7,8-dichloro-6-(2,6-difluorophenyl)-4-methyl-1-(2-methylpyrimidin-4-yl)-4H-[1,2,4]triazolo[4,3-a][1,4]benzodiazepine] the “Efficacy (GABA)%” value was 53% and the “Fold increase h-GABA-A α2β2γ1 oocyte @ 30-fold Ki” value was 1.53.
Cc1cc(-c2nnc3n2-c2ccc(Cl)c(Cl)c2C(c2c(F)cccc2F)=N[C@H]3C)nc(C)n1 [Example 96, (4S)-7,8-dichloro-6-(2,6-difluorophenyl)-1-(2,6-dimethylpyrimidin-4-yl)-4-methyl-4H-[1,2,4]triazolo[4,3-a][1,4]benzodiazepine] was tested, and the “Efficacy (GABA)%” value was 52% and the “Fold increase h-GABA-A α2β2γ1 oocyte @ 30-fold Ki” value was 1.52.
With Cc1ccc2c(c1Cl)C(c1c(F)cccc1F)=N[C@@H](C)c1nnc(C)n1-2 [Example 97, (4S)-7-chloro-6-(2,6-difluorophenyl)-1,4,8-trimethyl-4H-[1,2,4]triazolo[4,3-a][1,4]benzodiazepine] the “Efficacy (GABA)%” value was 148% and the “Fold increase h-GABA-A α2β2γ1 oocyte @ 30-fold Ki” value was 2.48.
In the case of CC[C@@H]1N=C(c2c(F)cccc2F)c2c(ccc(Br)c2Cl)-n2c(C)nnc21 [Example 98, (4S)-8-bromo-7-chloro-6-(2,6-difluorophenyl)-4-ethyl-1-methyl-4H-[1,2,4]triazolo[4,3-a][1,4]benzodiazepine], the “Efficacy (GABA)%” value is reported as 107% and the “Fold increase h-GABA-A α2β2γ1 oocyte @ 30-fold Ki” value is reported as 2.07.
With Cc1nnc2n1-c1ccc(C(F)F)c(Cl)c1C(c1c(F)cccc1F)=N[C@H]2C [Example 99, (4S)-7-chloro-8-(difluoromethyl)-6-(2,6-difluorophenyl)-1,4-dimethyl-4H-[1,2,4]triazolo[4,3-a][1,4]benzodiazepine] the “Efficacy (GABA)%” value was 135% and the “Fold increase h-GABA-A α2β2γ1 oocyte @ 30-fold Ki” value was 2.35.
COC[C@@H]1N=C(c2c(F)cccc2F)c2c(ccc(Br)c2Cl)-n2c(C)nnc21 [Example 100, (4R)-8-bromo-7-chloro-6-(2,6-difluorophenyl)-4-(methoxymethyl)-1-methyl-4H-[1,2,4]triazolo[4,3-a][1,4]benzodiazepine] was tested, and the “Efficacy (GABA)%” value was 64% and the “Fold increase h-GABA-A α2β2γ1 oocyte @ 30-fold Ki” value was 1.64.
Cc1nnc2n1-c1ccc(Br)c(Cl)c1C(c1c(F)cccc1F)=N[C@H]2CO [Example 101, [(4R)-8-bromo-7-chloro-6-(2,6-difluorophenyl)-1-methyl-4H-[1,2,4]triazolo[4,3-a][1,4]benzodiazepin-4-yl]methanol] was tested, and the “Efficacy (GABA)%” value was 119% and the “Fold increase h-GABA-A α2β2γ1 oocyte @ 30-fold Ki” value was 2.19.
With Cc1nnc2n1-c1ccc(I)c(Cl)c1C(c1c(F)cccc1F)=N[C@H]2C [Example 102, (4S)-7-chloro-6-(2,6-difluorophenyl)-8-iodo-1,4-dimethyl-4H-[1,2,4]triazolo[4,3-a][1,4]benzodiazepine] the “Efficacy (GABA)%” value was 89% and the “Fold increase h-GABA-A α2β2γ1 oocyte @ 30-fold Ki” value was 1.89.
C[C@@H]1N=C(c2c(F)cccc2F)c2c(ccc(C(F)(F)F)c2Cl)-n2c(CO)nnc21 [Example 103, [(4S)-7-chloro-6-(2,6-difluorophenyl)-4-methyl-8-(trifluoromethyl)-4H-[1,2,4]triazolo[4,3-a][1,4]benzodiazepin-1-yl]methanol] was tested, and the “Efficacy (GABA)%” value was 123% and the “Fold increase h-GABA-A α2β2γ1 oocyte @ 30-fold Ki” value was 2.23.
For COC[C@@H]1N=C(c2c(F)cccc2F)c2c(ccc(C(F)(F)F)c2Cl)-n2c(C)nnc21 [Example 105, (4R)-7-chloro-6-(2,6-difluorophenyl)-4-(methoxymethyl)-1-methyl-8-(trifluoromethyl)-4H-[1,2,4]triazolo[4,3-a][1,4]benzodiazepine], the “Efficacy (GABA)%” value was 75% and the “Fold increase h-GABA-A α2β2γ1 oocyte @ 30-fold Ki” value was 1.75.
Cc1nnc2n1-c1ccc(C(F)(F)F)c(Cl)c1C(c1c(F)cccc1F)=N[C@H]2CO [Example 106, [(4R)-7-chloro-6-(2,6-difluorophenyl)-1-methyl-8-(trifluoromethyl)-4H-[1,2,4]triazlo[4,3-a][1,4]benzodiazepin-4-yl]methanol] was tested, and the “Efficacy (GABA)%” value was 121% and the “Fold increase h-GABA-A α2β2γ1 oocyte @ 30-fold Ki” value was 2.21.
For C[C@@H]1N=C(c2c(F)cccc2F)c2c(ccc(C(F)(F)F)c2Cl)-n2cnnc21 [Example 107, (4S)-7-chloro-6-(2,6-difluorophenyl)-4-methyl-8-(trifluoromethyl)-4H-[1,2,4]triazolo[4,3-a][1,4]benzodiazepine], the “Efficacy (GABA)%” value was 147% and the “Fold increase h-GABA-A α2β2γ1 oocyte @ 30-fold Ki” value was 2.47.
In the case of CCc1ccc2c(c1Cl)C(c1c(F)cccc1F)=N[C@@H](C)c1nnc(C)n1-2 [Example 109, (4S)-7-chloro-6-(2,6-difluorophenyl)-8-ethyl-1,4-dimethyl-4H-[1,2,4]triazolo[4,3-a][1,4]benzodiazepine], the “Efficacy (GABA)%” value is reported as 230% and the “Fold increase h-GABA-A α2β2γ1 oocyte @ 30-fold Ki” value is reported as 3.30.
